Oligonucleotides are written 5' to 3', each unit as a sugar letter and its base; * is a phosphorothioate linkage, no mark a phosphodiester; rarer units and linkages stand in square brackets, end groups in braces. Plain capitals give the bases only. d = 2'-deoxy (DNA); r = 2'-OH (RNA)

For this series, the target named is UBE2V1. Kind of series: reporter assay of Huesken 2005. As to conditions: siRNA. A general note: Reporter assays use an easily measured gene product as a stand-in for the process of interest.
Also: test concentration or dose not given here.

Substance “sense rUrArUrArGrCrArUrCrArArArGrUrUrGrUrCrCdTdT / antisense rGrGrArCrArArCrUrUrUrGrArUrGrCrUrArUrAdTdG” registered a normalised inhibition (eCFP-eYFP dual reporter) of 47%.
Take “sense rUrArGrCrUrGrGrGrGrUrCrUrArGrArArGrArUdTdT / antisense rArUrCrUrUrCrUrArGrArCrCrCrCrArGrCrUrAdAdC”: the normalised inhibition (eCFP-eYFP dual reporter) turned out to be 82.8%.
In the case of “sense rGrArGrCrCrArUrArUrCrArGrUrGrCrUrArGrCdTdT / antisense rGrCrUrArGrCrArCrUrGrArUrArUrGrGrCrUrCdTdT” it was 90.9%.
In the case of “sense rCrCrUrArArUrGrArUrGrUrCrUrArArArGrArAdTdT / antisense rUrUrCrUrUrUrArGrArCrArUrCrArUrUrArGrGdCdG” it was 95.1%; in that of “sense rArGrGrArGrArUrGrGrCrArCrArGrUrUrArGrCdTdT / antisense rGrCrUrArArCrUrGrUrGrCrCrArUrCrUrCrCrUdAdC”, 60.9%.
In the case of “sense rUrCrGrCrArArUrUrUrCrCrGrArCrUrGrUrUrGdTdT / antisense rCrArArCrArGrUrCrGrGrArArArUrUrGrCrGrAdGdG” it was 85.6%; in that of “sense rCrCrUrCrArGrCrCrGrCrCrCrGrArArGrGrArCdTdT / antisense rGrUrCrCrUrUrCrGrGrGrCrGrGrCrUrGrArGrGdGdA”, 55.2%; in that of “sense rGrCrCrUrCrCrArArGrArArCrArArUrUrUrArUdTdT / antisense rArUrArArArUrUrGrUrUrCrUrUrGrGrArGrGrCdCdC”, 76.5%.
“sense rUrCrUrArGrArArGrArUrGrArCrGrArArGrArCdTdT / antisense rGrUrCrUrUrCrGrUrCrArUrCrUrUrCrUrArGrAdCdC” gave a normalised inhibition (eCFP-eYFP dual reporter) of 58%.
In the case of “sense rGrArArArArUrUrUrCrArCrUrGrCrArArArGrGdTdT / antisense rCrCrUrUrUrGrCrArGrUrGrArArArUrUrUrUrCdTdA” it was 83.7%; in that of “sense rCrUrArGrArArArArUrUrUrCrArCrUrGrCrArAdTdT / antisense rUrUrGrCrArGrUrGrArArArUrUrUrUrCrUrArGdGdT”, 96%.
In the case of “sense rUrCrArArArGrUrUrGrUrCrCrUrGrCrArArGrAdTdT / antisense rUrCrUrUrGrCrArGrGrArCrArArCrUrUrUrGrAdTdG” it was 89.8%.
In the case of “sense rArGrUrUrCrUrArArUrGrGrArGrUrGrGrUrGrGdTdT / antisense rCrCrArCrCrArCrUrCrCrArUrUrArGrArArCrUdAdT” it was 56.8%; in that of “sense rGrCrArArGrArGrCrUrUrCrGrGrCrGrCrCrUrAdTdT / antisense rUrArGrGrCrGrCrCrGrArArGrCrUrCrUrUrGrCdAdG”, 82.6%; in that of “sense rArArUrUrCrArUrArUrArGrCrArUrCrArArArGdTdT / antisense rCrUrUrUrGrArUrGrCrUrArUrArUrGrArArUrUdCdT”, 70%.
“sense rUrGrGrArArGrArArCrUrCrGrArArGrArArGrGdTdT / antisense rCrCrUrUrCrUrUrCrGrArGrUrUrCrUrUrCrCrAdAdC”: the normalised inhibition (eCFP-eYFP dual reporter) worked out at 59.9%.
As for “sense rCrArArUrUrUrCrCrGrArCrUrGrUrUrGrGrArAdTdT / antisense rUrUrCrCrArArCrArGrUrCrGrGrArArArUrUrGdCdG”, the normalised inhibition (eCFP-eYFP dual reporter) was 95.3%.
For “sense rUrCrArUrArUrArGrCrArUrCrArArArGrUrUrGdTdT / antisense rCrArArCrUrUrUrGrArUrGrCrUrArUrArUrGrAdAdT”, the normalised inhibition (eCFP-eYFP dual reporter) amounted to 49%.
For the substance “sense rCrGrArArUrArUrArCrArGrCrCrUrUrArArArAdTdT / antisense rUrUrUrUrArArGrGrCrUrGrUrArUrArUrUrCrGdGdT”, the normalised inhibition (eCFP-eYFP dual reporter) was 89.4%.
The substance “sense rGrArArGrArArCrUrCrGrArArGrArArGrGrCrCdTdT / antisense rGrGrCrCrUrUrCrUrUrCrGrArGrUrUrCrUrUrCdCdA” registered a normalised inhibition (eCFP-eYFP dual reporter) of 53.8%.
“sense rGrGrArUrGrArUrArArUrUrGrGrGrCrCrUrCrCdTdT / antisense rGrGrArGrGrCrCrCrArArUrUrArUrCrArUrCrCdCdT” gave a normalised inhibition (eCFP-eYFP dual reporter) of 70.5%.
For “sense rCrUrUrGrArArCrCrUrArGrArArArArUrUrUrCdTdT / antisense rGrArArArUrUrUrUrCrUrArGrGrUrUrCrArArGdTdC” the value was 53.5%; for “sense rCrArArArGrUrUrGrUrCrCrUrGrCrArArGrArGdTdT / antisense rCrUrCrUrUrGrCrArGrGrArCrArArCrUrUrUrGdAdT”, 71.5%.
In the case of “sense rGrArArGrArUrGrArCrGrArArGrArCrArUrGrAdTdT / antisense rUrCrArUrGrUrCrUrUrCrGrUrCrArUrCrUrUrCdTdA” it was 95%.
In the case of “sense rArGrGrArGrUrArGrGrArGrArUrGrGrCrArCrAdTdT / antisense rUrGrUrGrCrCrArUrCrUrCrCrUrArCrUrCrCrUdTdT” it was 92.3%.
Turning to “sense rGrUrCrUrArArArGrArArArArUrArUrGrArArAdTdT / antisense rUrUrUrCrArUrArUrUrUrUrCrUrUrUrArGrArCdAdT”, the normalised inhibition (eCFP-eYFP dual reporter) is 75.3%.
For the substance “sense rArArCrCrGrArArUrArUrArCrArGrCrCrUrUrAdTdT / antisense rUrArArGrGrCrUrGrUrArUrArUrUrCrGrGrUrUdTdT”, the normalised inhibition (eCFP-eYFP dual reporter) was determined as 96.1%.
In the case of “sense rCrUrArGrArArGrArUrGrArCrGrArArGrArCrAdTdT / antisense rUrGrUrCrUrUrCrGrUrCrArUrCrUrUrCrUrArGdAdC” it was 88.8%; in that of “sense rArArUrArUrArCrArGrCrCrUrUrArArArArUrAdTdT / antisense rUrArUrUrUrUrArArGrGrCrUrGrUrArUrArUrUdCdG”, 82.9%.
The substance “sense rCrArUrArUrArGrCrArUrCrArArArGrUrUrGrUdTdT / antisense rArCrArArCrUrUrUrGrArUrGrCrUrArUrArUrGdAdA” came in with a normalised inhibition (eCFP-eYFP dual reporter) of 77.7%.
In the case of “sense rUrGrGrCrArGrArArUrUrCrArUrArUrArGrCrAdTdT / antisense rUrGrCrUrArUrArUrGrArArUrUrCrUrGrCrCrAdTdT” it was 89.7%.
In the case of “sense rUrGrGrGrCrCrUrCrCrArArGrArArCrArArUrUdTdT / antisense rArArUrUrGrUrUrCrUrUrGrGrArGrGrCrCrCrAdAdT”, the normalised inhibition (eCFP-eYFP dual reporter) is 57.1%.
“sense rGrCrCrUrArArUrGrArUrGrUrCrUrArArArGrAdTdT / antisense rUrCrUrUrUrArGrArCrArUrCrArUrUrArGrGrCdGdC” registered a normalised inhibition (eCFP-eYFP dual reporter) of 94.5%.
In the case of “sense rCrCrUrUrUrGrUrArArGrArUrUrUrGrUrArArCdTdT / antisense rGrUrUrArCrArArArUrCrUrUrArCrArArArGrGdGdG” it was 63.8%; in that of “sense rUrCrGrGrCrGrCrCrUrArArUrGrArUrGrUrCrUdTdT / antisense rArGrArCrArUrCrArUrUrArGrGrCrGrCrCrGrAdAdG”, 78.8%.
“sense rUrUrCrArCrUrGrCrArArArGrGrArGrUrArArAdTdT / antisense rUrUrUrArCrUrCrCrUrUrUrGrCrArGrUrGrArAdAdT”: the normalised inhibition (eCFP-eYFP dual reporter) amounted to 81.4%.
For “sense rUrGrCrUrArGrCrArArArArUrGrGrCrArGrArAdTdT / antisense rUrUrCrUrGrCrCrArUrUrUrUrGrCrUrArGrCrAdCdT” the value was 71.4%; for “sense rUrArCrArArGrArUrGrGrArCrArGrGrGrArUrGdTdT / antisense rCrArUrCrCrCrUrGrUrCrCrArUrCrUrUrGrUrAdAdG”, 52.7%; for “sense rCrArArGrArGrCrUrUrCrGrGrCrGrCrCrUrArAdTdT / antisense rUrUrArGrGrCrGrCrCrGrArArGrCrUrCrUrUrGdCdA”, 84.1%.
“sense rArUrUrUrCrArCrUrGrCrArArArGrGrArGrUrAdTdT / antisense rUrArCrUrCrCrUrUrUrGrCrArGrUrGrArArArUdTdT” yielded a normalised inhibition (eCFP-eYFP dual reporter) of 95%.
In the case of “sense rGrGrArGrUrArArArArGrUrCrCrCrUrCrGrCrAdTdT / antisense rUrGrCrGrArGrGrGrArCrUrUrUrUrArCrUrCrCdTdT” it was 88.7%; in that of “sense rUrUrArArArArUrArGrArArUrGrUrGrGrArCrCdTdT / antisense rGrGrUrCrCrArCrArUrUrCrUrArUrUrUrUrArAdGdG”, 38.8%; in that of “sense rGrGrUrGrGrArCrCrCrArArGrArGrCrCrArUrAdTdT / antisense rUrArUrGrGrCrUrCrUrUrGrGrGrUrCrCrArCrCdAdC”, 84.1%.
Substance “sense rArGrArCrUrUrGrArArCrCrUrArGrArArArArUdTdT / antisense rArUrUrUrUrCrUrArGrGrUrUrCrArArGrUrCrUdTdC” registered a normalised inhibition (eCFP-eYFP dual reporter) of 71.4%.
In the case of “sense rArGrArUrGrGrArCrArGrGrGrArUrGrArUrArAdTdT / antisense rUrUrArUrCrArUrCrCrCrUrGrUrCrCrArUrCrUdTdG” it was 90%.
In the case of “sense rArArGrArGrCrCrArUrArUrCrArGrUrGrCrUrAdTdT / antisense rUrArGrCrArCrUrGrArUrArUrGrGrCrUrCrUrUdGdG” it was 84.4%; in that of “sense rUrUrCrCrGrArCrUrGrUrUrGrGrArArGrArArCdTdT / antisense rGrUrUrCrUrUrCrCrArArCrArGrUrCrGrGrArAdAdT”, 52.3%.
Take “sense rArGrUrCrCrCrUrCrGrCrArArUrUrUrCrCrGrAdTdT / antisense rUrCrGrGrArArArUrUrGrCrGrArGrGrGrArCrUdTdT”: the normalised inhibition (eCFP-eYFP dual reporter) stood at 96%.
In the case of “sense rUrGrArArCrCrUrArGrArArArArUrUrUrCrArCdTdT / antisense rGrUrGrArArArUrUrUrUrCrUrArGrGrUrUrCrAdAdG” it was 43%.

These data come from the OligoGym collection.
